As a reminder, the ILS is the gain in survival time of treated over control animals, in per cent. High values mean a large benefit in survival, low ones a small benefit in survival.

The test system of one assay is NIH3T3. The experiment in a line: In vitro cytotoxicity was evaluated in mouse embryo BALB/c 3T3 cells. In kind it is functional. The conditions noted are these: read-out: LC50 (the source's name).
A further assay relates to L1210. The assay can be described thus: Compound was evaluated against L1210 leukemia in mice expressed as increase of life span; Compound was active. In kind it is functional, Mus musculus.

Each structure is given as a SMILES string. Bounds are passed on as bounds.

With `O=P1(N(CCCl)CCCl)NCCCO1` (stereo not drawn) [CYCLOPHOSPHAMIDE ANHYDROUS], the CC50 in the assay with NIH3T3 was 37.6 µM. For `CN1C(SCCS(=O)(=O)O)CCOP1(=O)N(CCCl)CCCl` (stereo not drawn), in the assay with NIH3T3, the CC50 was 3.6 µM. Besides, the ILS with L1210 was more than 29%.

The values are drawn from ChEMBL document CHEMBL1130863, “N3-methyl-mafosfamide as a chemically stable, alternative prodrug of mafosfamide” (1998).
